{"source": "patent US20230105103A1", "about": "“THERAPEUTIC MOLECULES FOR COMBATING SEPSIS” (CENTRE FOR CELLULAR AND MOLECULAR PLATFORMS, priority 2019, published 2023)", "origin": "cited, not measured here", "test_system": "mice in endotoxemia model", "details": "Panda et al., 2012; cited from earlier work"}
{"substance": "chitohexaose [CHTX]", "values": [{"measurement": "protection of mice", "value": "protect mice"}]}
